ChEMBL document CHEMBL4715829, “Heterodimeric Rifampicin-Tobramycin conjugates break intrinsic resistance of Pseudomonas aeruginosa to doxycycline and chloramphenicol in vitro and in a Galleria mellonella in vivo model” (Eur J Med Chem, 2019)

Legend:
Pseudomonas aeruginosa [1] = experiment: Antibacterial activity against Pseudomonas aeruginosa 259-96918 assessed as reduction in bacterial growth by measuring chloramphenicol MIC at 8 ug/ml incubated for 18 hrs in presence of chloramphenicol by broth microdilution assay (reference value: 1024 ug/ml); assay type: functional; conditions: dose 8 µg/ml
Pseudomonas aeruginosa [2] = experiment: Antibacterial activity against Pseudomonas aeruginosa 101243 assessed as fractional inhibitory concentration incubated for 18 hrs in presence of doxycycline by broth microdilution assay; assay type: functional
Pseudomonas aeruginosa [3] = experiment: Antibacterial activity against Pseudomonas aeruginosa 264-101354 assessed as fractional inhibitory concentration incubated for 18 hrs in presence of chloramphenicol by broth microdilution assay; assay type: functional
Pseudomonas aeruginosa [4] = experiment: Antibacterial activity against wild type Pseudomonas aeruginosa PAO1 assessed as reduction in bacterial growth by measuring doxycycline MIC at 0.25 ug/ml incubated for 18 hrs in presence of doxycycline by broth microdilution assay (reference value: 16 ug/ml); assay type: functional; conditions: dose 0.25 µg/ml
Pseudomonas aeruginosa [5] = experiment: Antibacterial activity against Pseudomonas aeruginosa 100036 assessed as fractional inhibitory concentration incubated for 18 hrs in presence of chloramphenicol by broth microdilution assay; assay type: functional
Pseudomonas aeruginosa [6] = experiment: Antibacterial activity against Pseudomonas aeruginosa 262-101856 assessed as reduction in bacterial growth by measuring chloramphenicol MIC at 8 ug/ml incubated for 18 hrs in presence of chloramphenicol by broth microdilution assay (reference value: 2048 ug/ml); assay type: functional; conditions: dose 8 µg/ml
Pseudomonas aeruginosa [7] = experiment: Antibacterial activity against Pseudomonas aeruginosa 259-96918 assessed as fractional inhibitory concentration incubated for 18 hrs in presence of chloramphenicol by broth microdilution assay; assay type: functional
Pseudomonas aeruginosa [8] = experiment: Antibacterial activity against Pseudomonas aeruginosa 260-97103 assessed as reduction in bacterial growth by measuring doxycycline MIC at 8 ug/ml incubated for 18 hrs in presence of doxycycline by broth microdilution assay (reference value: 16 ug/ml); assay type: functional; conditions: dose 8 µg/ml
Acinetobacter baumannii [9] = experiment: Antibacterial activity against Acinetobacter baumannii ATCC 17978 assessed as fractional inhibitory concentration index in presence of chloramphenicol incubated for 18 hrs by broth microdilution assay; assay type: functional
Pseudomonas aeruginosa [10] = experiment: Antibacterial activity against Pseudomonas aeruginosa 100036 assessed as fractional inhibitory concentration index incubated for 18 hrs in presence of minocycline by broth microdilution assay; assay type: functional
Pseudomonas aeruginosa [11] = experiment: Antibacterial activity against Pseudomonas aeruginosa 101885 assessed as fractional inhibitory concentration index in presence of chloramphenicol incubated for 18 hrs by broth microdilution assay; assay type: functional
Pseudomonas aeruginosa [12] = experiment: Antibacterial activity against Pseudomonas aeruginosa 260-97103 infected in Galleria mellonella larvae assessed as survival of larvae at 100 mg/kg treated at 3 hrs post-infection in presence of doxycycline and measured after 24 hrs relative to control; assay type: functional
Pseudomonas aeruginosa [13] = experiment: Antibacterial activity against Pseudomonas aeruginosa 260-97103 infected in Galleria mellonella larvae assessed as survival of larvae treated at 3 hrs post-infection in presence of doxycycline and measured every 6 hrs for 36 hrs; assay type: functional, organism-based; conditions: dose 75-100 mg/kg
Pseudomonas aeruginosa [14] = experiment: Potentiation of chloramphenicol-induced antibacterial activity against Pseudomonas aeruginosa 264-101354 incubated for 18 hrs in presence of chloramphenicol by broth microdilution assay; assay type: functional, organism-based; conditions: dose 1-32 µg/ml
Pseudomonas aeruginosa [15] = experiment: Antibacterial activity against Pseudomonas aeruginosa 260-97103 infected in Galleria mellonella larvae assessed as survival of larvae treated at 3 hrs post-infection in presence of chloramphenicol and measured every 6 hrs for 36 hrs; assay type: functional, organism-based; conditions: dose 75-100 mg/kg
Enterobacter cloacae [16] = experiment: Antibacterial activity against Enterobacter cloacae ATCC 117029 assessed as potentiation of chloramphenicol-induced antibacterial activity by measuring chloramphenicol MIC at 10 uM incubated for 18 hrs in presence of chloramphenicol by broth microdilution assay (reference value: 8 ug/ml); assay type: functional
Pseudomonas aeruginosa [17] = experiment: Potentiation of doxycycline-induced antibacterial activity against Pseudomonas aeruginosa 264-101354 incubated for 18 hrs in presence of doxycycline by broth microdilution assay; assay type: functional, organism-based; conditions: dose 1-32 µg/ml
Pseudomonas aeruginosa [18] = experiment: Potentiation of doxycycline-induced antibacterial activity against Pseudomonas aeruginosa 259-96918 assessed as fold change in doxycycline MIC at 9.8 uM incubated for 18 hrs in presence of doxycycline by broth microdilution assay relative to control; assay type: functional
Enterobacter cloacae [19] = experiment: Antibacterial activity against Enterobacter cloacae ATCC 117029 assessed as fractional inhibitory concentration index in presence of doxycycline incubated for 18 hrs by broth microdilution assay; assay type: functional
Klebsiella pneumoniae [20] = experiment: Antibacterial activity against Klebsiella pneumoniae ATCC 16381 assessed as reduction in bacterial growth incubated for 18 hrs by broth microdilution assay; assay type: functional
Pseudomonas aeruginosa [21] = experiment: Antibacterial activity against Pseudomonas aeruginosa 264-101354 assessed as fractional inhibitory concentration index incubated for 18 hrs in presence of tigecycline by broth microdilution assay; assay type: functional
Acinetobacter baumannii [22] = experiment: Antibacterial activity against Acinetobacter baumannii ATCC 17978 assessed as fractional inhibitory concentration index in presence of doxycycline incubated for 18 hrs by broth microdilution assay; assay type: functional
Pseudomonas aeruginosa [23] = experiment: Antibacterial activity against Pseudomonas aeruginosa 114228 assessed as fractional inhibitory concentration index in presence of chloramphenicol incubated for 18 hrs by broth microdilution assay; assay type: functional
Enterobacter cloacae [24] = experiment: Antibacterial activity against Enterobacter cloacae ATCC 117029 assessed as reduction in bacterial growth incubated for 18 hrs by broth microdilution assay; assay type: functional
Klebsiella pneumoniae [25] = experiment: Antibacterial activity against Klebsiella pneumoniae ATCC 16381 assessed as potentiation of doxycycline-induced antibacterial activity by measuring doxycycline MIC at 10 uM incubated for 18 hrs in presence of doxycycline by broth microdilution assay (reference value: 128 ug/ml); assay type: functional
Pseudomonas aeruginosa [26] = experiment: Potentiation of doxycycline-induced antibacterial activity against Pseudomonas aeruginosa PAO1 incubated for 18 hrs in presence of doxycycline by broth microdilution assay; assay type: functional, organism-based; conditions: dose 1-32 µg/ml
Escherichia coli = experiment: Antibacterial activity against Escherichia coli ATCC 25922 assessed as potentiation of doxycycline-induced antibacterial activity by measuring doxycycline MIC at 10 uM incubated for 18 hrs in presence of doxycycline by broth microdilution assay (reference value: 0.5 ug/ml); assay type: functional
Pseudomonas aeruginosa [27] = experiment: Potentiation of chloramphenicol-induced antibacterial activity against Pseudomonas aeruginosa PAO1 incubated for 18 hrs in presence of chloramphenicol by broth microdilution assay; assay type: functional, organism-based; conditions: dose 1-32 µg/ml
Pseudomonas aeruginosa [28] = experiment: Potentiation of chloramphenicol-induced antibacterial activity against Pseudomonas aeruginosa 260-97103 incubated for 18 hrs in presence of chloramphenicol by broth microdilution assay; assay type: functional, organism-based; conditions: dose 1-32 µg/ml
Pseudomonas aeruginosa [29] = experiment: Antibacterial activity against Pseudomonas aeruginosa 101885 assessed as fractional inhibitory concentration index in presence of doxycycline incubated for 18 hrs by broth microdilution assay; assay type: functional
Pseudomonas aeruginosa [30] = experiment: Antibacterial activity against Pseudomonas aeruginosa 264-101354 assessed as reduction in bacterial growth by measuring doxycycline MIC at 4 ug/ml incubated for 18 hrs in presence of doxycycline by broth microdilution assay (reference value: 64 ug/ml); assay type: functional; conditions: dose 4 µg/ml
Pseudomonas aeruginosa [31] = experiment: Potentiation of doxycycline-induced antibacterial activity against Pseudomonas aeruginosa 114228 assessed as fold change in doxycycline MIC at 7.6 uM incubated for 18 hrs in presence of doxycycline by broth microdilution assay relative to control; assay type: functional
Pseudomonas aeruginosa [32] = experiment: Antibacterial activity against Pseudomonas aeruginosa 260-97103 assessed as potentiation of chloramphenicol-induced antibacterial activity by measuring chloramphenicol MIC at 7.6 uM incubated for 18 hrs in presence of chloramphenicol by broth microdilution assay (reference value: 128 ug/ml); assay type: functional

| SMILES | FIC (Pseudomonas aeruginosa [2]) | FIC (Pseudomonas aeruginosa [3]) | FIC (Pseudomonas aeruginosa [5]) | fractional inhibitory concentration index (FICI) (Acinetobacter baumannii [9]) | fractional inhibitory concentration index (FICI) (Pseudomonas aeruginosa [11]) | Activity (Pseudomonas aeruginosa [14]) | MIC (Enterobacter cloacae [16]) [µg/mL] | Activity (Pseudomonas aeruginosa [17]) | fractional inhibitory concentration index (FICI) (Enterobacter cloacae [19]) | MIC (Klebsiella pneumoniae [20]) [µg/mL] | fractional inhibitory concentration index (FICI) (Acinetobacter baumannii [22]) | fractional inhibitory concentration index (FICI) (Pseudomonas aeruginosa [23]) | MIC (Enterobacter cloacae [24]) [µg/mL] | MIC (Klebsiella pneumoniae [25]) [µg/mL] | Activity (Pseudomonas aeruginosa [26]) | MIC (Escherichia coli) [µg/mL] | Activity (Pseudomonas aeruginosa [27]) | Activity (Pseudomonas aeruginosa [28]) | fractional inhibitory concentration index (FICI) (Pseudomonas aeruginosa [29]) | other results |
| --- | --- | --- | --- | --- | --- | --- | --- | --- | --- | --- | --- | --- | --- | --- | --- | --- | --- | --- | --- | --- |
| NC[C@H]1O[C@H](O[C@H]2[C@H](O)[C@@H](O[C@H]3O[C@H](CO)[C@@H](O)[C@H](N)[C@H]3O)[C@H](N)C[C@@H]2N)[C@H](N)C[C@@H]1O [TOBRAMYCIN] | 0.5 | 0.5 | 0.5 |  |  |  |  |  |  |  |  |  |  |  |  |  |  |  |  | MIC (Pseudomonas aeruginosa [1]): 1020 µg/mL; MIC (Pseudomonas aeruginosa [4]): 8 µg/mL; MIC (Pseudomonas aeruginosa [6]): 2050 µg/mL; FIC (Pseudomonas aeruginosa [7]): 0.25; MIC (Pseudomonas aeruginosa [8]): 16 µg/mL |
| CO[C@H]1/C=C/O[C@@]2(C)Oc3c(C)c(O)c4c(O)c(c(/C=N/N5CCN(Cc6cn(CCCCCCO[C@@H]7[C@@H](O[C@H]8O[C@H](CO)[C@@H](O)[C@H](N)[C@H]8O)[C@H](N)C[C@H](N)[C@H]7O[C@H]7O[C@H](CN)[C@@H](O)C[C@H]7N)nn6)CC5)c(O)c4c3C2=O)NC(=O)/C(C)=C\C=C\[C@H](C)[C@H](O)[C@@H](C)[C@@H](O)[C@@H](C)[C@H](OC(C)=O)[C@@H]1C.Cl.Cl.Cl.Cl.Cl |  |  |  | 0.75 | 0.078 | Dose-dependent effect | 1 | Dose-dependent effect | 0.5 | > 128 | 1.25 | <0.281 | 16 | 64 | Dose-dependent effect | 0.125 | Dose-dependent effect | Dose-dependent effect | 0.078 | fractional inhibitory concentration index (FICI) (Pseudomonas aeruginosa [10]): 0.13; survival at 100 mg/kg (Pseudomonas aeruginosa [12]): 75%; Activity (Pseudomonas aeruginosa [13]): Dose-dependent effect; Activity (Pseudomonas aeruginosa [15]): Dose-dependent effect; fold change (FC) (Pseudomonas aeruginosa [18]): 4; fractional inhibitory concentration index (FICI) (Pseudomonas aeruginosa [21]): 0.19 |
| CO[C@H]1/C=C/O[C@@]2(C)Oc3c(C)c(O)c4c(O)c(c(/C=N/N5CCN(C)CC5)c(O)c4c3C2=O)NC(=O)/C(C)=C\C=C\[C@H](C)[C@H](O)[C@@H](C)[C@@H](O)[C@@H](C)[C@H](OC(C)=O)[C@@H]1C [RIFAMPIN] | 0.5 | 0.5 | 0.5 |  |  |  |  |  |  |  |  |  |  |  |  |  |  |  |  | MIC (Pseudomonas aeruginosa [30]): 32 µg/mL |
| CO[C@H]1/C=C/O[C@@]2(C)Oc3c(C)c(O)c4c(O)c(c(/C=N/N5CCN(Cc6cn(CCCCCCCCCCCCO[C@@H]7[C@@H](O[C@H]8O[C@H](CO)[C@@H](O)[C@H](N)[C@H]8O)[C@H](N)C[C@H](N)[C@H]7O[C@H]7O[C@H](CN)[C@@H](O)C[C@H]7N)nn6)CC5)c(O)c4c3C2=O)NC(=O)/C(C)=C\C=C\[C@H](C)[C@H](O)[C@@H](C)[C@@H](O)[C@@H](C)[C@H](OC(C)=O)[C@@H]1C.O=C(O)C(F)(F)F.O=C(O)C(F)(F)F.O=C(O)C(F)(F)F.O=C(O)C(F)(F)F.O=C(O)C(F)(F)F |  |  |  | 0.75 | 0.07 | Dose-dependent effect | 1 | Dose-dependent effect | 0.375 | > 128 | 1.25 | <0.156 | 16 | 64 | Dose-dependent effect | 0.25 | Dose-dependent effect | Dose-dependent effect | 0.094 | fold change (FC) (Pseudomonas aeruginosa [31]): 4; MIC (Pseudomonas aeruginosa [32]): 0.5 µg/mL |
